Assay results reported in PubChem BioAssay (NCI).
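The concentration for 50% growth inhibition is given as GI50. At the TGI there is no net growth.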

Key:
Assay in all cases: NCI tumour cell line growth inhibition, 384-well format
[1] = system: SK-MEL-2 melanoma
[2] = system: HCC-2998 colon
[3] = system: MOLT-4 leukemia
[4] = system: LOX IMVI melanoma
[5] = system: HCT-116 colon
[6] = system: ACHN renal
[7] = system: KM12 colon
[8] = system: OVCAR-3 ovarian
[9] = system: CCRF-CEM leukemia
[10] = system: MDA-MB-231 breast
[11] = system: SF-268 CNS
[12] = system: T-47D breast
[13] = system: SK-OV-3 ovarian
[14] = system: OVCAR-8 ovarian
[15] = system: RPMI-8226 leukemia
[16] = system: HS 578T breast
[17] = system: NCI/ADR-RES ovarian
[18] = system: NCI-H322M lung
[19] = system: A549 NSCLC
[20] = system: COLO 205 colon
[21] = system: SK-MEL-28 melanoma
[22] = system: SN12C renal
[23] = system: HL-60(TB) leukemia
[24] = system: 786-0 renal
[25] = system: TK-10 renal
[26] = system: UACC-62 melanoma
[27] = system: IGROV1 ovarian
[28] = system: PC-3 prostate
[29] = system: OVCAR-4 ovarian
[30] = system: CAKI-1 renal
[31] = system: SF-539 CNS
[32] = system: DU-145 prostate
[33] = system: SK-MEL-5 melanoma
[34] = system: HT29 colon
[35] = system: SW-620 colon
[36] = system: NCI-H460 NSCLC
[37] = system: SR leukemia
[38] = system: NCI-H522 lung
[39] = system: HOP-92 NSCLC
[40] = system: NCI-H226 lung
[41] = system: SNB-19 CNS
[42] = system: UACC-257 melanoma
[43] = system: MCF7 breast
[44] = system: NCI-H23 lung
[45] = system: MALME-3M melanoma
[46] = system: EKVX NSCLC
[47] = system: HCT-15 colon
[48] = system: M14 melanoma
[49] = system: SNB-75 CNS
[50] = system: OVCAR-5 ovarian
[51] = system: K-562 leukemia
[52] = system: A498 renal

## CN(C)CCN(C)CC(C)(C)C(=O)/C=C/c1ccc(Cl)cc1
[1]
  GI50: 1.55 µM
  TGI: 3.32 µM
[2]
  GI50: 4.45 µM
  TGI: 13.7 µM
[3]
  GI50: 1.76 µM
  TGI: 3.2 µM
[4]
  GI50: 0.764 µM
  TGI: 2.12 µM
[5]
  GI50: 2 µM
  TGI: 4.18 µM
[6]
  GI50: 2.02 µM
  TGI: 7.29 µM
[7]
  GI50: 2.45 µM
  TGI: 5.05 µM
[8]
  GI50: 1.75 µM
  TGI: 4.03 µM
[9]
  GI50: 1.68 µM
  TGI: 3.05 µM
[10]
  GI50: 3.1 µM
  TGI: 8.03 µM
[11]
  GI50: 2.39 µM
  TGI: 5.29 µM
[12]
  GI50: 17.9 µM
  TGI: 31.9 µM
[13]
  GI50: 2.24 µM
  TGI: 5.95 µM
[14]
  GI50: 2.24 µM
  TGI: 4.8 µM
[15]
  GI50: 1.71 µM
  TGI: 3.17 µM
[16]
  GI50: 2.55 µM
  TGI: 6.02 µM
[17]
  GI50: 2.06 µM
  TGI: 3.98 µM
[18]
  GI50: 3.11 µM
  TGI: 7.72 µM
[19]
  GI50: 3.3 µM
  TGI: 11.1 µM
[20]
  GI50: 5.88 µM
  TGI: 17.1 µM
[21]
  GI50: 3.06 µM
  TGI: 10.2 µM
[22]
  GI50: 2.09 µM
  TGI: 5.98 µM
[23]
  GI50: 1.94 µM
  TGI: 3.37 µM
[24]
  GI50: 2.91 µM
  TGI: 9.33 µM
[25]
  GI50: 2.44 µM
  TGI: 6.06 µM
[26]
  GI50: 1.91 µM
  TGI: 3.75 µM
[27]
  GI50: 2.53 µM
  TGI: 6.1 µM
[28]
  GI50: 2.62 µM
  TGI: 5.93 µM
[29]
  GI50: 2.37 µM
  TGI: 5.73 µM
[30]
  GI50: 2.92 µM
  TGI: 12 µM
[31]
  GI50: 10.5 µM
  TGI: 22.4 µM
[32]
  GI50: 3.22 µM
  TGI: 8.86 µM
[33]
  GI50: 1.9 µM
  TGI: 4.08 µM
[34]
  GI50: 3.26 µM
  TGI: 11.8 µM
[35]
  GI50: 2.09 µM
  TGI: 4.45 µM
[36]
  GI50: 2.03 µM
  TGI: 4.12 µM
[37]
  GI50: 1.42 µM
  TGI: 2.73 µM
[38]
  GI50: 1.34 µM
  TGI: 2.77 µM
[39]
  GI50: 2.09 µM
  TGI: 4.65 µM
[40]
  GI50: 5.39 µM
  TGI: 16.2 µM
[41]
  GI50: 2.93 µM
  TGI: 9.62 µM
[42]
  GI50: 2.36 µM
  TGI: 4.96 µM
[43]
  GI50: 17.2 µM
  TGI: 31.2 µM
[44]
  GI50: 5.84 µM
  TGI: 18.2 µM
[45]
  GI50: 4.76 µM
  TGI: 14.6 µM
[46]
  GI50: 2.14 µM
  TGI: 5.07 µM
[47]
  GI50: 5.08 µM
  TGI: 17.8 µM
[48]
  GI50: 2.07 µM
  TGI: 4.06 µM
[49]
  GI50: 2.91 µM
  TGI: 7.32 µM
[50]
  GI50: 7.14 µM
  TGI: 19.7 µM
[51]
  GI50: 1.72 µM
  TGI: 3.44 µM
[52]
  GI50: 2.78 µM
  TGI: 7.47 µM
